The test relates to sunburned skin. As to the kind of experiment: topical treatment of sunburned skin. Type of test: in vivo, human being. To be noted: compared with other anti-inflammatory drugs, such as Motrin® and Tolectin®. From the text: The present invention provides a method and composition for treating sunburned skin of a human being. The composition includes a mixture of indomethacin and a moisturizing lotion. […] It is believed that the skin, with the presence of the topical formulation, acts as a reservoir, absorbing large amounts of the indomethacin and slowly releasing the indomethacin into the skin and to other tissues. The skin may actually act as a depot or reservoir for the indomethacin. It is believed that the indomethacin is stabilized and solubilized by the moisturizing lotion wherein the moisturizing lotion enhances the absorption of the indomethacin through the skin and accordingly permits the drug to be employed topically for inflammation of the sunburned skin. […] This mixture level allows the Cetaphil® to act as a proper stabilizer and solubilizer for the indomethacin. A stronger or weaker indomethacin mixture may be created depending on the treatment. However, experimentation has shown that the above-noted mixture remains an effective mixture for the treatment of sunburned skin. In use, the disclosed amounts of indomethacin and Cetaphil® are mixed to create the appropriate composition. […] The moisturizing lotion provides moisture and a cooling sensation to the sunburned skin, and the indomethacin reduces the inflammation to the skin caused by the sunburn. […]

Each structure is given as a SMILES string.

The text below walks through data of patent US7705032B2, “Method and composition for treating burned skin” (Lil Brat Pharmaceuticals of Marlette, MI, priority 2003, dated 2010).

`COc1ccc2c(c1)c(CC(=O)O)c(C)n2C(=O)c1ccc(Cl)cc1` [indomethacin, 1-(p-chlorobenzoyl)-5-methoxy-2-methylindole-3-acetic acid]: the relieving sunburned skin entry is reported as “far better results”.
